Measurements published in US10954216B2, “BMP-signal-inhibiting compound” (RIKEN, priority 2016, dated 2021).
pIC50: −log10 of the molar value. Structures can show the parent of a compound that is named as a salt.

Test system: BMP signal in MDA-231-D-BREFluc/Rluc cells
Experiment: BMP signal inhibitory effect (AlphaScreen SureFire SMAD1 p-Ser463/465, BMP-6 stimulation)
Format: cell-based
Settings: BMP-6 stimulated MDA-231-D-BREFluc/Rluc cells, phospho-SMAD1 AlphaScreen; read-out: IC50
Procedure: BMP Signal Inhibitory Effect
A BMP signal inhibitory activity of a compound of the present invention was evaluated according to the following method.
MDA-231-D-BREFluc/Rluc cells prepared according to the method described in Y. Katsuno et al., Oncogene, 27, 6322 (2008) were incubated at 37° C. for 2 hours together with test compounds, and BMP-6 (commercially available from R&D System, 507-BM-020) was then added thereto, and the mixture was additionally incubated at 37° C. for 30 minutes. A Lysis Buffer and Acceptor mix of AlphaScreen SureFire SMAD1 (p-Ser463/465) assay kit (commercially available from Perkin Elmer, TGRSM1S10K) were sequentially added thereto, the mixture was incubated at room temperature for 2 hours, and AlphaScreen Protein A kit (commercially available from Perkin Elmer, 6760617) was then added thereto, and standard AlphaScreen settings of Alpha Technology—compatible plate reader (commercially available from Perkin Elmer, EnSpire) was used for measurement.

SMILES	pIC50
CCn1cc(-c2ccnc(Nc3ccc(C4CCN(CCOC)C4)cc3)n2)c(-c2cccnc2)n1 (centres unmarked) [Example 50, 4-(1-ethyl-3-(pyridin-3-yl)-1H-pyrazol-4-yl)-N-(4-(1-(2-methoxyethyl)pyrrolidin-3-yl)phenyl)pyrimidin-2-amine]	8.20
CCn1cc(-c2ccnc(Nc3cnn(C4CCOCC4)c3)n2)c(-c2cccnc2)n1 [Example 53, 4-(1-ethyl-3-(pyridin-3-yl)-1H-pyrazol-4-yl)-N-(1-(tetrahydro-2H-pyran-4-yl)-1H-pyrazol-4-yl)pyrimidin-2-amine]	7.66
CCn1cc(-c2ccnc(Nc3cnn(C4CCN(CC(C)(C)O)CC4)c3)n2)c(-c2cccnc2)n1 [Example 54, 1-(4-(4-((4-(1-Ethyl-3-(pyridin-3-yl)-1H-pyrazol-4-yl)pyrimidin-2-yl)amino)-1H-pyrazol-1-yl)piperidin-1-yl)-2-methylpropan-2-ol]	8.09
CCn1cc(-c2ccnc(Nc3cnn(C4CCN(CCOC)CC4)c3)n2)c(-c2cccnc2)n1 [Example 55, 4-(1-ethyl-3-(pyridin-3-yl)-1H-pyrazol-4-yl)-N-(1-(1-(2-methoxyethyl)piperidin-4-yl)-1H-pyrazol-4-yl)pyrimidin-2-amine oxalate]	7.67
COCCN1CCC(c2ccc(Nc3nccc(-c4cn(CCOC)nc4-c4cccnc4)n3)cc2)CC1 [Example 57, 4-(1-(2-methoxyethyl)-3-(pyridin-3-yl)-1H-pyrazol-4-yl)-N-(4-(1-(2-methoxyethyl)piperidin-4-yl)phenyl)pyrimidin-2-amine]	7.89
CCn1cc(-c2ccnc(Nc3ccc(C4CCN(CCOC)CC4)cc3)n2)c(-c2cccnc2)n1 [Example 58, 4-(1-ethyl-3-(pyridin-3-yl)-1H-pyrazol-4-yl)-N-(4-(1-(2-methoxyethyl)piperidin-4-yl)phenyl)pyrimidin-2-amine]	8.36
CCn1cc(-c2ccnc(Nc3ccc4c(c3)CN(CCOC)C4)n2)c(-c2cccnc2)n1 [Example 61, N-(4-(1-ethyl-3-(pyridin-3-yl)-1H-pyrazol-4-yl)pyrimidin-2-yl)-2-(2-methoxyethyl)isoindolin-5-amine]	8.15
COCCN1Cc2ccc(Nc3nccc(-c4cn(CCOC)nc4-c4cccnc4)n3)cc2C1 [Example 62, 2-(2-Methoxyethyl)-N-(4-(1-(2-methoxyethyl)-3-(pyridin-3-yl)-1H-pyrazol-4-yl)pyrimidin-2-yl)isoindolin-5-amine]	8.00
CN1CCc2cc(Nc3nccc(-c4cn(CC(C)(C)O)nc4-c4cccnc4)n3)ccc2C1 [Example 65, 2-Methyl-1-(4-(2-((2-methyl-1,2,3,4-tetrahydroisoquinolin-6-yl)amino)pyrimidin-4-yl)-3-(pyridin-3-yl)-1H-pyrazol-1-yl)propan-2-ol]	8.48
CCn1cc(-c2ccnc(Nc3ccc(N4CCC(C)(N(C)C)CC4)cc3)n2)c(-c2cccnc2)n1 [Example 68, N-(4-(4-(Dimethylamino)-4-methylpiperidin-1-yl)phenyl)-4-(1-ethyl-3-(pyridin-3-yl)-1H-pyrazol-4-yl)pyrimidin-2-amine]	8.17
CCn1cc(-c2ccnc(Nc3ccc(-c4cnco4)cc3)n2)c(-c2cccnc2)n1 [Example 70, 4-(1-ethyl-3-(pyridin-3-yl)-1H-pyrazol-4-yl)-N-(4-(oxazol-5-yl)phenyl)pyrimidin-2-amine]	7.47
FC(F)(F)OCCn1cc(-c2ccnc(Nc3ccc(N4CCNCC4)cc3)n2)c(-c2cccnc2)n1 [Example 72, N-(4-(Piperazin-1-yl)phenyl)-4-(3-(pyridin-3-yl)-1-(2-(trifluoromethoxy)ethyl)-1H-pyrazol-4-yl)pyrimidin-2-amine]	7.87
CC(=O)N1CCN(C(=O)c2ccc(Nc3nccc(-c4cn(CCc5ccccc5)nc4-c4cccnc4)n3)cc2)CC1 [Example 74, 1-(4-(4-((4-(1-phenethyl-3-(pyridin-3-yl)-1H-pyrazol-4-yl)pyrimidin-2-yl)amino)benzoyl)piperazin-1-yl)ethan-1-one]	7.41
COCCN1CCN(c2ccc(Nc3nccc(-c4cn(C5CCOC5)nc4-c4cccnc4)n3)cc2)CC1 (centres unmarked) [Example 76, N-(4-(4-(2-methoxyethyl)piperazin-1-yl)phenyl)-4-(3-(pyridin-3-yl)-1-(tetrahydrofuran-3-yl)-1H-pyrazol-4-yl)pyrimidin-2-amine]	7.34
COCCN1CCN(c2ccc(Nc3nccc(-c4cn(CC5(C)COC5)nc4-c4cccnc4)n3)cc2)CC1 [Example 77]	7.29
CCn1cc(-c2ccnc(Nc3ccc(N4CCN(CC5CCCN5C)CC4)cc3)n2)c(-c2cccnc2)n1 (centres unmarked) [Example 78, 4-(1-Ethyl-3-(pyridin-3-yl)-1H-pyrazol-4-yl)-N-(4-(4-((1-methylpyrrolidin-2-yl)methyl)piperazin-1-yl)phenyl)pyrimidin-2-amine]	7.90
COCCn1cc(-c2ccnc(Nc3ccc(N4CCN(CC5CCCN5C)CC4)cc3)n2)c(-c2cccnc2)n1 (centres unmarked) [Example 80, 4-(1-(2-Methoxyethyl)-3-(pyridin-3-yl)-1H-pyrazol-4-yl)-N-(4-(4-((1-methylpyrrolidin-2-yl)methyl)piperazin-1-yl)phenyl)pyrimidin-2-amine]	7.57
COCCN1CCN(c2ccc(Nc3nccc(-c4cn(CC(C)(C)O)nc4-c4cccnc4)n3)cc2)CC1 [Example 81, 1-(4-(2-((4-(4-(2-Methoxyethyl)piperazin-1-yl)phenyl)amino)pyrimidin-4-yl)-3-(pyridin-3-yl)-1H-pyrazol-1-yl)-2-methylpropan-2-ol]	7.68
COCCN1CCN(c2ccc(Nc3nccc(-c4cn(Cc5ccccc5C#N)nc4-c4cccnc4)n3)cc2)CC1 [Example 82]	7.74

Continued, values first:

pIC50	SMILES
7.67	CCn1cc(-c2ccnc(Nc3cnn(C4CN(CC(C)(C)O)C4)c3)n2)c(-c2cccnc2)n1 [Example 48, 1-(3-(4-((4-(1-Ethyl-3-(pyridin-3-yl)-1H-pyrazol-4-yl)pyrimidin-2-yl)amino)-1H-pyrazol-1-yl)azetidin-1-yl)-2-methylpropan-2-ol]
7.74	CCn1cc(-c2ccnc(Nc3ccc(N4CCN(CCOCC(F)F)CC4)cc3)n2)c(-c2cccnc2)n1 [Example 51, N-(4-(4-(2-(2,2-difluoroethoxy)ethyl)piperazin-1-yl)phenyl)-4-(1-ethyl-3-(pyridin-3-yl)-1H-pyrazol-4-yl)pyrimidin-2-amine]
7.88	CCn1cc(-c2ccnc(Nc3ccc(N4CCN(CCOCC5CC5)CC4)cc3)n2)c(-c2cccnc2)n1 [Example 52, N-(4-(4-(2-(Cyclopropylmethoxy)ethyl)piperazin-1-yl)phenyl)-4-(1-ethyl-3-(pyridin-3-yl)-1H-pyrazol-4-yl)Pyrimidin-2-amine]
7.75	CCn1cc(-c2ccnc(Nc3ccc(-c4nnc(C)s4)cc3)n2)c(-c2cccnc2)n1 [Example 56, 4-(1-Ethyl-3-(pyridin-3-yl)-1H-pyrazol-4-yl)-N-(4-(5-methyl-1,3,4-thiadiazol-2-yl)phenyl)pyrimidin-2-amine]
7.60	CCn1cc(-c2ccnc(Nc3ccc(C4CCN(C(=O)CO)CC4)cc3)n2)c(-c2cccnc2)n1 [Example 59, 1-(4-(4-((4-(1-ethyl-3-(pyridin-3-yl)-1H-pyrazol-4-yl)pyrimidin-2-yl)amino)phenyl)piperidin-1-yl)-2-hydroxyethan-1-one]
8.19	COCCn1cc(-c2ccnc(Nc3ccc4c(c3)CN(C)C4)n2)c(-c2cccnc2)n1 [Example 60, N-(4-(1-(2-methoxyethyl)-3-(pyridin-3-yl)-1H-pyrazol-4-yl)pyrimidin-2-yl)-2-methylisoindolin-5-amine]
8.41	CN1Cc2ccc(Nc3nccc(-c4cn(CC(C)(C)O)nc4-c4cccnc4)n3)cc2C1 [Example 63, 2-Methyl-1-(4-(2-((2-methylisoindolin-5-yl)amino)pyrimidin-4-yl)-3-(pyridin-3-yl)-1H-pyrazol-1-yl)propan-2-ol]
8.40	COCCn1cc(-c2ccnc(Nc3ccc4c(c3)CCN(C)C4)n2)c(-c2cccnc2)n1 [Example 64, N-(4-(1-(2-Methoxyethyl)-3-(pyridin-3-yl)-1H-pyrazol-4-yl)pyrimidin-2-yl)-2-methyl-1,2,3,4-tetrahydroisoquinolin-6-amine]
8.19	CCn1cc(-c2ccnc(Nc3ccc4c(c3)CCN(C3CC3)CC4)n2)c(-c2cccnc2)n1 [Example 66, 3-Cyclopropyl-N-(4-(1-ethyl-3-(pyridin-3-yl)-1H-pyrazol-4-yl)pyrimidin-2-yl)-2,3,4,5-tetrahydro-1H-benzo[d]azepin-7-amine]
8.28	CCn1cc(-c2ccnc(Nc3ccc4c(c3)OCCN(C)C4)n2)c(-c2cccnc2)n1 [Example 67, N-(4-(1-ethyl-3-(pyridin-3-yl)-1H-pyrazol-4-yl)pyrimidin-2-yl)-4-methyl-2,3,4,5-tetrahydrobenzo[f][1,4]oxazepin-8-amine]
7.89	CCn1cc(-c2ccnc(Nc3ccc(N4CCN5CCC4CC5)cc3)n2)c(-c2cccnc2)n1 [Example 69, N-(4-(1,4-diazabicyclo[3.2.2]nonan-4-yl)phenyl)-4-(1-ethyl-3-(pyridin-3-yl)-1H-pyrazol-4-yl)pyrimidin-2-amine]
8.14	CCn1cc(-c2ccnc(Nc3ccc4c(c3)CNC4)n2)c(-c2cccnc2)n1 [Example 73, N-(4-(1-ethyl-3-(pyridin-3-yl)-1H-pyrazol-4-yl)pyrimidin-2-yl)isoindolin-5-amine]
7.45	CN1CCCC1CN1CCN(c2ccc(Nc3nccc(-c4cn(C5COC5)nc4-c4cccnc4)n3)cc2)CC1 (centres unmarked) [Example 79, N-(4-(4-((1-Methylpyrrolidin-2-yl)methyl)piperazin-1-yl)phenyl)-4-(1-(oxetan-3-yl)-3-(pyridin-3-yl)-1H-pyrazol-4-yl)pyrimidin-2-amine]
